Where two headings read alike, the source gives them in different places.
Experiments:
[1] = test system: LPS; conditions: biotinylated LPS binding to sCD14-coated wells, cited from earlier work
[2] = test system: C57BL/6J ob/ob mice; assay: treatment of insulin-resistant diabetic C57BL/6J ob/ob mice, intraperitoneal glucose tolerance test; assay type: in vivo
Text: The objective of this experiment was to study the effect of systemic administration of human recombinant sCD14 (rhCD14) with respect to relevant insulin resistance parameters in experimental mice (mice C57BL/6J ob/ob).
Experimental animals: Mice strains C57BL/6J ob/ob (The Jackson lab.). Males of 10 weeks old. These animals had obesity with hyperphagia, hyperinsulinemia (the presence of excess insulin in the blood), insulin resistance and moderate hyperglycemia (an excess of sugar in the blood).
Treatment of the mice with rhCD14: rhCD14 was continuously infused for 12 days by use of Alzet® pumps (pump 1002, 100 μl) implanted subcutaneously on the back of the animals. 20 mice were used. 10 with rhCD14 and 10 with saline serum (control). The dose was 1 μg/g weight of mice/day and it was administrated subcutaneously for 12 days.
Assay for glucose tolerance: Finalized the 12 days and after 16 hours of fasting, an intraperitoneal glucose tolerance test (GTT) was made. 2 g/kg of glucose (Glucosmon, 50%) were injected intraperitoneally. Blood samples were taken from the tail of the mice (20 μl) at 0, 15, 30, 60, 120 and 180 minutes after the glucose administration. The blood glucose levels were measured using a conventional glucometer (Menarini) and the insulin levels were meed by ELISA (Mercodia Ultrasensitive Mouse Insulin ELISA).

[3] = test system: C57BL/6J mice (HF mice); assay: treatment of insulin-resistant obese C57BL/6J mice (HF mice), glucose tolerance test; assay type: in vivo; conditions: HF diet obese mice
Text: The objective of this experiment was to study the effect of systemic administration of human recombinant sCD14 (rhCD14) with respect to relevant insulin resistance parameters in experimental mice (C57BL/6J mice (HF mice).
Experiential animals: Male mice strains C57BL/6J (HF mice) C(he Jackson lab.). These animals had obesity.
Treatment of the mice with rhCD14: Male C57BL/6J mice were fed a HF diet (Harlan Teklad No. 88137: 21% by wt and 42% kcal from fat) for 26-28 weeks. The last 12 days, mice received a dose of 1 μg/g bw per day of hCD14 in two injections (0.5 μg/g each one) every 12 hours. The control group was treated with vehicle (saline serum) alone. Each group contained 9 mice.
Assay for Glucose Tolerance: As in Example 1.

Substance	inhibition of LPS binding ([1]; concentration 1.7 μM)	inhibition of LPS binding ([1]; concentration 7 μM)	basal levels of serum glucose compared to the control group ([2]; 1 μg/g/day s.c. for 12 days)	concentrations of serum insulin ([2]; 1 μg/g/day s.c. for 12 days)	fasting blood glucose ([2]; 1 μg/g/day s.c. infusion for 12 days, 16 hours fasting, mean±SEM, control 242±30, P=0.02)	body weight, treated vs controls ([2]; 12 days treatment)	glucose curves in GTT, treated vs control (two-way ANOVA) ([2]; i.p. GTT 2 g/kg glucose, 0-180 min, P<0.02)	insulin curves in GTT, treated vs control (two-way ANOVA) ([2]; i.p. GTT, P<0.0001)	concentrations of serum insulin ([3]; 1 μg/g bw per day for 12 days)	basal levels of serum glucose compared to the control group ([3]; 1 μg/g bw per day in two injections for 12 days)	body weight, treated vs controls ([3]; 12 days treatment)	insulin curves in GTT, treated vs control (two-way ANOVA) ([3]; P<0.0001)	glucose curves in GTT, treated vs control (two-way ANOVA) ([3]; P<0.002)
AELQQWLKPGLKVLSIAQAHSLNFSC (mammalian) [peptide]	72%	84%											
rhCD14: human recombinant soluble CD14 glycoprotein, binds bacterial lipopolysaccharide (LPS)	84%		decreased	also decreased	153 ± 14 mg/dL	did not produce significant changes	significant difference	significant difference	increased	decreased	did not produce significant changes	significant difference	significant difference
